Assay results from patent US20170000133A1, “BENZOXABOROLE FUNGICIDES” (SYNGENTA PARTICIPATIONS AG, priority 2013, published 2017).

Columns and labels:
[1] = test system: Thanatephorus cucumeris (Rhizoctonia solani); assay: Thanatephorus cucumeris (Rhizoctonia solani) / liquid culture (foot rot, damping-off); type: cell-based; settings: PDB potato dextrose broth, 24° C., 3-4 days after application, read-out: disease control (inhibition of growth determined photometrically)
Experimental: 17. Thanatephorus cucumeris (Rhizoctonia solani)/Liquid Culture (Foot Rot, Damping-Off): Mycelia fragments of a newly grown liquid culture of the fungus were directly mixed into nutrient broth (PDB potato dextrose broth). After placing a DMSO solution of the test compounds into a 96-well microtiter plate at an application rate of 200 ppm, the nutrient broth containing the fungal material was added. The test plates were incubated at 24° C. and the inhibition of growth was determined photometrically 3-4 days after application.

Gaeumannomyces graminis = Gaeumannomyces graminis / liquid culture (take-all of cereals); type: cell-based; settings: PDB potato dextrose broth, 24° C., 4-5 days after application, read-out: disease control (inhibition of growth determined photometrically)
Experimental: (§1) 14. Gaeumannomyces graminis/Liquid Culture (Take-all of Cereals): Mycelial fragments of the fungus from cryogenic storage were directly mixed into nutrient broth (PDB potato dextrose broth). After placing a DMSO solution of test compound into a 96-well microtiter plate at an application rate of 200 ppm, the nutrient broth Cp.33, containing the fungal spores is added. The test plates were incubated at 24° C. and the inhibition of growth was determined photometrically 4-5 days after application.

[2] = test system: Mycosphaerella graminicola (Septoria tritici); assay: Mycosphaerella graminicola (Septoria tritici) / liquid culture (Septoria blotch); type: cell-based; settings: Zymoseptoria tritici, PDB potato dextrose broth, 24° C., 4-5 days after application, read-out: disease control (inhibition of growth determined photometrically)
Experimental: as §1, with “13. Mycosphaerella graminicola (Septoria tritici)/Liquid” for “14. Gaeumannomyces graminis/Liquid”, “(Septoria Blotch): Conidia” for “(Take-all of Cereals): Mycelial fragments”, “broth” for “broth Cp.33,”, “was” for “is”

Pythium ultimum = Pythium ultimum / liquid culture (seedling damping off); type: cell-based; settings: Globisporangium ultimum; 200 ppm; potato dextrose broth, 24° C., 2-3 days after application; read-out: disease control (inhibition of growth determined photometrically)
[3] = test system: Glomerella lagenarium (Colletotrichum lagenarium); assay: Glomerella lagenarium (Colletotrichum lagenarium) / liquid culture (anthracnose); type: cell-based; settings: Colletotrichum orbiculare, PDB potato dextrose broth, 24° C., 3-4 days after application, read-out: disease control (inhibition of growth measured photometrically)
Experimental: as §1, with “11. Glomerella lagenarium (Colletotrichum lagenarium)/Liquid” for “14. Gaeumannomyces graminis/Liquid”, “(Anthracnose): Conidia” for “(Take-all of Cereals): Mycelial fragments”, “broth” for “broth Cp.33,”, “was” for “is”, “measured” for “determined”, “3-4” for “4-5”

Plasmopara viticola = assay: whole plant or invertebrate; type: in vivo; settings: foliar, read-out: disease control
[4] = test system: Monographella nivalis (Microdochium nivale); assay: Monographella nivalis (Microdochium nivale) / liquid culture (foot rot cereals); type: cell-based; settings: PDB potato dextrose broth, 24° C., 4-5 days after application, read-out: disease control (inhibition of growth determined photometrically)
[5] = test system: Mycosphaerella arachidis (Cercospora arachidicola); assay: Mycosphaerella arachidis (Cercospora arachidicola) / liquid culture (early leaf spot); type: cell-based; settings: PDB potato dextrose broth, 24° C., 4-5 days after application, read-out: disease control (inhibition of growth determined photometrically)
Experimental: as §1, with “12. Mycosphaerella arachidis (Cercospora arachidicola)/Liquid” for “14. Gaeumannomyces graminis/Liquid”, “(Early Leaf Spot): Conidia” for “(Take-all of Cereals): Mycelial fragments”, “broth” for “broth Cp.33,”, “was” for “is”

O=C(OCCC(F)(F)F)c1cc2c(cc1Cl)COB2O [Compound 238]
≥ 80%: inhibition at 200 ppm [1] | inhibition at 200 ppm (Gaeumannomyces graminis) | inhibition at 200 ppm [2] | inhibition at 200 ppm (Pythium ultimum) | inhibition at 200 ppm [3] | pest or weed control at 200 ppm (Plasmopara viticola) | inhibition at 200 ppm [4]

CC#CC(C)OC(=O)c1ccc2c(c1)B(O)OC2 (centres unmarked) [Compound 341]
≥ 80%: inhibition at 200 ppm [1] | inhibition at 200 ppm (Gaeumannomyces graminis) | inhibition at 200 ppm [2] | inhibition at 200 ppm (Pythium ultimum) | inhibition at 200 ppm [3] | pest or weed control at 200 ppm (Plasmopara viticola) | inhibition at 200 ppm [5]

C#CCCCOC(=O)c1cc2c(cc1F)COB2O [Compound 395]
≥ 80%: inhibition at 200 ppm [1] | inhibition at 200 ppm (Gaeumannomyces graminis) | inhibition at 200 ppm (Pythium ultimum) | inhibition at 200 ppm [3] | pest or weed control at 200 ppm (Plasmopara viticola) | inhibition at 200 ppm [4] | inhibition at 200 ppm [5]

O=C(OCc1ccc(-c2ccccc2)cc1)c1ccc2c(c1)B(O)OC2 [Compound 325]
≥ 80%: inhibition at 200 ppm (Gaeumannomyces graminis) | inhibition at 200 ppm [2] | inhibition at 200 ppm [3] | inhibition at 200 ppm [4] | inhibition at 200 ppm [5]

O=C(OCc1cccc(F)c1)c1cc2c(cc1Cl)COB2O [Compound 241]
≥ 80%: inhibition at 200 ppm [1] | inhibition at 200 ppm (Gaeumannomyces graminis) | inhibition at 200 ppm [2] | inhibition at 200 ppm (Pythium ultimum) | inhibition at 200 ppm [3] | inhibition at 200 ppm [4] | inhibition at 200 ppm [5]

O=C(OCC(F)(F)Cl)c1cc2c(cc1Cl)COB2O [Compound 192]
≥ 80%: inhibition at 200 ppm [1] | inhibition at 200 ppm (Gaeumannomyces graminis) | inhibition at 200 ppm [2] | inhibition at 200 ppm (Pythium ultimum) | inhibition at 200 ppm [3] | pest or weed control at 200 ppm (Plasmopara viticola) | inhibition at 200 ppm [4]

O=C(OCC1CCSCC1)c1cc2c(cc1Cl)COB2O [Compound 196]
≥ 80%: inhibition at 200 ppm (Gaeumannomyces graminis) | inhibition at 200 ppm [2] | inhibition at 200 ppm (Pythium ultimum) | inhibition at 200 ppm [3] | pest or weed control at 200 ppm (Plasmopara viticola) | inhibition at 200 ppm [4]

CCCCSCCOC(=O)c1cc2c(cc1Cl)COB2O [Compound 198]
≥ 80%: inhibition at 200 ppm [1] | inhibition at 200 ppm [2] | inhibition at 200 ppm (Pythium ultimum) | inhibition at 200 ppm [3] | inhibition at 200 ppm [4] | inhibition at 200 ppm [5]

CCCCCCCOC(=O)c1cc2c(cc1F)COB2O [Compound 378]
≥ 80%: inhibition at 200 ppm [1] | inhibition at 200 ppm (Gaeumannomyces graminis) | inhibition at 200 ppm [2] | inhibition at 200 ppm (Pythium ultimum) | inhibition at 200 ppm [3] | inhibition at 200 ppm [4] | inhibition at 200 ppm [5]

O=C(OCCCCc1ccc2ccccc2c1)c1cc2c(cc1Cl)COB2O [Compound 227]
≥ 80%: inhibition at 200 ppm [1] | inhibition at 200 ppm [2] | inhibition at 200 ppm [3] | inhibition at 200 ppm [4]

COc1ccc(OCCOC(=O)c2cc3c(cc2F)COB3O)cc1 [Compound 406]
≥ 80%: inhibition at 200 ppm [1] | inhibition at 200 ppm (Gaeumannomyces graminis) | inhibition at 200 ppm [2] | inhibition at 200 ppm (Pythium ultimum) | inhibition at 200 ppm [3] | inhibition at 200 ppm [4] | inhibition at 200 ppm [5]

Cn1cc(CCCOC(=O)c2ccc3c(c2)B(O)OC3)cn1 [Compound 345]
≥ 80%: inhibition at 200 ppm [1] | inhibition at 200 ppm (Gaeumannomyces graminis) | inhibition at 200 ppm (Pythium ultimum) | inhibition at 200 ppm [3] | pest or weed control at 200 ppm (Plasmopara viticola) | inhibition at 200 ppm [5]

C[Si](C)(C)/C=C/COC(=O)c1cc2c(cc1F)COB2O [Compound 404]
≥ 80%: inhibition at 200 ppm [1] | inhibition at 200 ppm (Gaeumannomyces graminis) | inhibition at 200 ppm [2] | inhibition at 200 ppm (Pythium ultimum) | inhibition at 200 ppm [3] | inhibition at 200 ppm [4] | inhibition at 200 ppm [5]

C=C(C)COC(=O)c1cc2c(cc1Cl)COB2O [Compound 214]
≥ 80%: inhibition at 200 ppm [1] | inhibition at 200 ppm (Gaeumannomyces graminis) | inhibition at 200 ppm [2] | inhibition at 200 ppm (Pythium ultimum) | inhibition at 200 ppm [3] | inhibition at 200 ppm [4] | inhibition at 200 ppm [5]

CCCCCCCOC(=O)c1cc2c(cc1Cl)COB2O [Compound 195]
≥ 80%: inhibition at 200 ppm [1] | inhibition at 200 ppm (Gaeumannomyces graminis) | inhibition at 200 ppm [2] | inhibition at 200 ppm [3] | inhibition at 200 ppm [4] | inhibition at 200 ppm [5]

COC(=O)C(OC(=O)c1cc2c(cc1F)COB2O)c1ccccc1 (centres unmarked) [Compound 411]
≥ 80%: inhibition at 200 ppm (Gaeumannomyces graminis) | inhibition at 200 ppm [2] | inhibition at 200 ppm (Pythium ultimum) | inhibition at 200 ppm [3] | pest or weed control at 200 ppm (Plasmopara viticola) | inhibition at 200 ppm [4]

O=C(OCCF)c1ccc2c(c1)B(O)OC2 [Compound 360]
≥ 80%: inhibition at 200 ppm [1] | inhibition at 200 ppm (Pythium ultimum) | inhibition at 200 ppm [3] | pest or weed control at 200 ppm (Plasmopara viticola) | inhibition at 200 ppm [5]

O=C(OCc1ccc(C(F)(F)F)cc1Cl)c1cc2c(cc1F)COB2O [Compound 386]
≥ 80%: inhibition at 200 ppm [1] | inhibition at 200 ppm (Gaeumannomyces graminis) | inhibition at 200 ppm (Pythium ultimum) | inhibition at 200 ppm [3] | inhibition at 200 ppm [4] | inhibition at 200 ppm [5]

COCCOC(=O)c1cc2c(cc1F)COB2O [Compound 412]
≥ 80%: inhibition at 200 ppm [1] | inhibition at 200 ppm (Pythium ultimum) | inhibition at 200 ppm [3] | pest or weed control at 200 ppm (Plasmopara viticola) | inhibition at 200 ppm [4] | inhibition at 200 ppm [5]

O=C(OCc1ccc(-c2ccccc2)cc1)c1cc2c(cc1Cl)COB2O [Compound 199]
≥ 80%: inhibition at 200 ppm (Gaeumannomyces graminis) | inhibition at 200 ppm [2] | inhibition at 200 ppm [3] | inhibition at 200 ppm [4]

CCCCSCCOC(=O)c1cc2c(cc1F)COB2O [Compound 384]
≥ 80%: inhibition at 200 ppm [1] | inhibition at 200 ppm [2] | inhibition at 200 ppm (Pythium ultimum) | inhibition at 200 ppm [3] | inhibition at 200 ppm [4] | inhibition at 200 ppm [5]

Cn1cc(CCCOC(=O)c2cc3c(cc2F)COB3O)cn1 [Compound 407]
≥ 80%: inhibition at 200 ppm [1] | inhibition at 200 ppm (Pythium ultimum) | inhibition at 200 ppm [3] | inhibition at 200 ppm [5]

O=C(OCc1ccc(-c2ccccc2)cc1)c1cc2c(cc1F)COB2O [Compound 385]
≥ 80%: inhibition at 200 ppm [1] | inhibition at 200 ppm (Gaeumannomyces graminis) | inhibition at 200 ppm [2] | inhibition at 200 ppm [3] | inhibition at 200 ppm [4] | inhibition at 200 ppm [5]

COc1ccc(OCCOC(=O)c2cc3c(cc2Cl)COB3O)cc1 [Compound 218]
≥ 80%: inhibition at 200 ppm [1] | inhibition at 200 ppm (Gaeumannomyces graminis) | inhibition at 200 ppm [2] | inhibition at 200 ppm (Pythium ultimum) | inhibition at 200 ppm [3] | inhibition at 200 ppm [4] | inhibition at 200 ppm [5]

C=CC(=O)OCC(C)OC(=O)c1cc2c(cc1Cl)COB2O (centres unmarked) [Compound 191]
≥ 80%: inhibition at 200 ppm (Gaeumannomyces graminis) | inhibition at 200 ppm [2] | inhibition at 200 ppm [3] | inhibition at 200 ppm [4]

O=C(OC1CCC1)c1cc2c(cc1F)COB2O [Compound 392]
≥ 80%: inhibition at 200 ppm [1] | inhibition at 200 ppm [2] | inhibition at 200 ppm (Pythium ultimum) | inhibition at 200 ppm [3] | pest or weed control at 200 ppm (Plasmopara viticola) | inhibition at 200 ppm [4] | inhibition at 200 ppm [5]

O=C(OCc1ncc(C(F)(F)F)cc1Cl)c1cc2c(cc1F)COB2O [Compound 409]
≥ 80%: inhibition at 200 ppm [1] | inhibition at 200 ppm (Gaeumannomyces graminis) | inhibition at 200 ppm (Pythium ultimum) | inhibition at 200 ppm [3] | pest or weed control at 200 ppm (Plasmopara viticola) | inhibition at 200 ppm [4]

O=C(OCCOc1ccc(Cl)cc1)c1cc2c(cc1F)COB2O [Compound 414]
≥ 80%: inhibition at 200 ppm [1] | inhibition at 200 ppm (Gaeumannomyces graminis) | inhibition at 200 ppm [2] | inhibition at 200 ppm (Pythium ultimum) | inhibition at 200 ppm [3] | inhibition at 200 ppm [4] | inhibition at 200 ppm [5]

C#CC(CC)OC(=O)c1cc2c(cc1F)COB2O (centres unmarked) [Compound 387]
≥ 80%: inhibition at 200 ppm [1] | inhibition at 200 ppm (Gaeumannomyces graminis) | inhibition at 200 ppm [2] | inhibition at 200 ppm (Pythium ultimum) | inhibition at 200 ppm [3] | inhibition at 200 ppm [4]
